Experimental data: patent publication US20240409585A1, “MACROCYCLIC IMMUNOMODULATORS” (priority 2021, published 2024)
Numbered stars: 1 amine (or outer) side, 2 acyl side, 3 side chain; on linkers, the order of the positions; unused ones are H or OH. Bridge positions count the residues as written; N and C are the ends. Square brackets hold non-standard residues; d marks the D form. Peptide text beside a SMILES is read from it. * marks the point of attachment. ξ: configuration not given here. Phe(3-CF3) = N[C@@H](Cc1cccc(C(F)(F)F)c1)C(=O)O; Phe(4-COOH) = N[C@@H](Cc1ccc(C(=O)O)cc1)C(=O)O; X28 = O=C([C@H](Cc1ccc2ccncc2c1)N[*:1])[*:2]; Bip = N[C@@H](Cc1ccc(-c2ccccc2)cc1)C(=O)O; Phe(3-Me) = Cc1cccc(C[C@H](N)C(=O)O)c1; 4Pal = N[C@@H](Cc1ccncc1)C(=O)O; 2Thi = N[C@@H](Cc1cccs1)C(=O)O; Cha = N[C@@H](CC1CCCCC1)C(=O)O; Cit = NC(=O)NCCC[C@H](N)C(=O)O; Ile(3ξ) = CCC(C)[C@H](N)C(=O)O; Thr(3ξ) = CC(O)[C@H](N)C(=O)O; Ahp(2) = CCCCC[C@H](N)C(=O)O; Carboxymethyl = O=C(O)C*; NMeA = CN[C@@H](C)C(=O)O; Orn = NCCC[C@H](N)C(=O)O; Dab = NCC[C@H](N)C(=O)O; Dap = NC[C@H](N)C(=O)O; ξC = NC(CS)C(=O)O

Molecular target: T1, PE-labeled human PD-L1-Ig binding to Jurkat cell line over-expressing human PD-1 (Jurkat-PD-1) (Homo sapiens, UniProt Q15116)
T1 construct: expressed in transfected cells; host or cells: Jurkat
T1 sequence (Q15116 25-288): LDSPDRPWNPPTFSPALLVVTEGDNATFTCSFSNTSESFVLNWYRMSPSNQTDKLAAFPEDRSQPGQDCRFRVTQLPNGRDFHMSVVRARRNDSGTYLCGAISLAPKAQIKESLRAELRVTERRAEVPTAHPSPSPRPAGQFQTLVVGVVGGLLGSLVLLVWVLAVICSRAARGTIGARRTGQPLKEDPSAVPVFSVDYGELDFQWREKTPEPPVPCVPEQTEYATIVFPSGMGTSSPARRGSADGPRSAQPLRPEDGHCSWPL
Experiment: Jurkat-PD-1 Cell Binding High-Content Screening Assay (CBA): Method 1
Settings: Jurkat-hPD-1 cells, PE-labeled PD-L1-Ig 20 nM final; read-out: Jurkat HPDL1 PD1 IC50 (uM) (Method 1)

SMILES | IC50 [µM]
CC(C)C[C@@H]1NC(=O)[C@H](CCN)NC(=O)[C@@H](CC(C)C)NC(=O)[C@H](C)N(C)C(=O)[C@H](CCCN)NC(=O)[C@H](Cc2ccc(-c3ccccc3)cc2)NC(=O)[C@H](C(C)C)NC(=O)[C@H](Cc2c[nH]c3ccccc23)NC(=O)[C@H](CC(=O)O)NC(=O)[C@H](Cc2ccc(C(=O)O)cc2)NC(=O)[C@H](CC(N)=O)NC(=O)CSC[C@@H](C(=O)N[C@@H](C)C(N)=O)NC(=O)[C@H]([C@@H](C)O)NC(=O)[C@H](C(C)C)NC1=O [Compound 1386] ({CH2CO}-N[Phe(4-COOH)]DWV[Bip][Orn][NMeA][dL][Dab]LVTCA-NH2; thioether N-14) | 0.05
CC(C)C[C@@H]1NC(=O)[C@H](CCN)NC(=O)[C@@H](CC(C)C)NC(=O)[C@H](C)N(C)C(=O)[C@H](CCCNC(N)=O)NC(=O)[C@H](Cc2ccc(-c3ccccc3)cc2)NC(=O)[C@H](C(C)C)NC(=O)[C@H](Cc2c[nH]c3ccccc23)NC(=O)[C@H](CC(=O)O)NC(=O)[C@H](Cc2ccc(OCC(=O)O)cc2)NC(=O)[C@H](CN)NC(=O)CSC[C@@H](C(=O)N[C@@H](C)C(N)=O)NC(=O)[C@H]([C@@H](C)O)NC(=O)[C@H](C(C)C)NC1=O [Compound 1566] ({CH2CO}-[Dap]Y(Carboxymethyl)DWV[Bip][Cit][NMeA][dL][Dab]LVTCA-NH2; thioether N-14) | 0.04
CC(C)C[C@@H]1NC(=O)[C@H](CCN)NC(=O)[C@@H](CC(C)C)NC(=O)[C@H](C)N(C)C(=O)[C@H](CCCNC(=N)N)NC(=O)[C@H](Cc2ccc(-c3ccccc3)cc2)NC(=O)[C@H](C(C)C)NC(=O)[C@H](Cc2cccs2)NC(=O)[C@H](CC(=O)O)NC(=O)[C@H](Cc2ccc(O)cc2)NC(=O)[C@H](CC(N)=O)NC(=O)CSC[C@@H](C(=O)N[C@@H](C)C(N)=O)NC(=O)[C@H]([C@@H](C)O)NC(=O)[C@H](C(C)C)NC1=O [Compound 1219] ({CH2CO}-NYD[2Thi]V[Bip]R[NMeA][dL][Dab]LVTCA-NH2; thioether N-14) | 0.26
CC(C)C[C@@H]1NC(=O)CSC[C@@H](C(=O)N[C@@H](C)C(N)=O)NC(=O)[C@H](CO)NC(=O)[C@H](C(C)C)NC(=O)[C@H](CC(C)C)NC(=O)[C@H](CCCNC(=N)N)NC(=O)[C@@H](CC(C)C)NC(=O)[C@H](C)N(C)C(=O)[C@H](CCCNC(=N)N)NC(=O)[C@H](Cc2ccc(-c3ccccc3)cc2)NC(=O)[C@H](C(C)C)NC(=O)[C@H](Cc2c[nH]c3ccccc23)NC(=O)[C@H](CC(=O)O)NC(=O)[C@H](Cc2ccc(O)cc2)NC1=O [Compound 1037] ({CH2CO}-LYDWV[Bip]R[NMeA][dL]RLVSCA-NH2; thioether N-14) | 0.14
CC(C)C[C@H]1NC(=O)[C@H](C)N(C)C(=O)[C@H](CCCNC(N)=O)NC(=O)[C@H](Cc2ccc(-c3ccccc3)cc2)NC(=O)[C@H](C(C)C)NC(=O)[C@H](Cc2c[nH]c3ccccc23)NC(=O)[C@H](CC(=O)O)NC(=O)[C@H](Cc2ccc(O)cc2)NC(=O)[C@H](CC(N)=O)NC(=O)CSC[C@@H](C(=O)N[C@@H](C)C(N)=O)NC(=O)[C@H]([C@@H](C)O)NC(=O)[C@H](C(C)C)NC(=O)[C@H](CC2CCCCC2)NC(=O)[C@H](CCN)NC1=O [Compound 1287] ({CH2CO}-NYDWV[Bip][Cit][NMeA][dL][Dab][Cha]VTCA-NH2; thioether N-14) | 0.01
CC(C)C[C@@H]1NC(=O)[C@H](CCN)NC(=O)[C@@H](CC(C)C)NC(=O)[C@H](C)N(C)C(=O)[C@H](CCCN)NC(=O)[C@H](Cc2ccc(-c3ccccc3)cc2)NC(=O)[C@H](C(C)C)NC(=O)[C@H](Cc2c[nH]c3ccccc23)NC(=O)[C@H](CC(=O)O)NC(=O)[C@H](Cc2ccc(O)cc2)NC(=O)[C@H](CCC(N)=O)NC(=O)CSC[C@@H](C(=O)N[C@@H](C)C(N)=O)NC(=O)[C@H]([C@@H](C)O)NC(=O)[C@H](C(C)C)NC1=O [Compound 1363] ({CH2CO}-QYDWV[Bip][Orn][NMeA][dL][Dab]LVTCA-NH2; thioether N-14) | 0.11
CCC(C)[C@@H]1NC(=O)[C@H](Cc2ccc(-c3ccccc3)cc2)NC(=O)[C@H](CC(C)C)NC(=O)[C@H](Cc2c[nH]c3ccccc23)NC(=O)[C@H](CC(=O)O)NC(=O)[C@H](Cc2ccc(C(=O)O)cc2)NC(=O)[C@H](Cc2ccc(OCC(=O)O)cc2)NC(=O)CSC[C@@H](C(=O)N[C@@H](CC(N)=O)C(N)=O)NC(=O)[C@H]([C@@H](C)O)NC(=O)[C@H](C(C)C)NC(=O)[C@H](CC2CCCCC2)NC(=O)[C@H](CCN)NC(=O)[C@@H](CC(C)C)NC(=O)[C@H](C)N(C)C1=O (stereo partly drawn) [Compound 1919] ({CH2CO}-Y(Carboxymethyl)[Phe(4-COOH)]DWL[Bip][Ile(3ξ)][NMeA][dL][Dab][Cha]VTCN-NH2; thioether N-14) | 0.03
CCC(C)[C@@H]1NC(=O)[C@H](Cc2ccc(-c3ccccc3)cc2)NC(=O)[C@H](CC(C)C)NC(=O)[C@H](Cc2c[nH]c3ccccc23)NC(=O)[C@H](CC(=O)O)NC(=O)[C@H](Cc2ccc(C(=O)O)cc2)NC(=O)[C@H](Cc2ccc(OCC(=O)O)cc2)NC(=O)CSC[C@@H](C(=O)N[C@@H](CCN)C(N)=O)NC(=O)[C@H](CO)NC(=O)[C@H](C(C)C)NC(=O)[C@H](CC2CCCCC2)NC(=O)[C@H](CCN)NC(=O)[C@@H](CC(C)C)NC(=O)[C@H](C)N(C)C1=O (stereo partly drawn) [Compound 1910] ({CH2CO}-Y(Carboxymethyl)[Phe(4-COOH)]DWL[Bip][Ile(3ξ)][NMeA][dL][Dab][Cha]VSC[Dab]-NH2; thioether N-14) | 0.02
CC(C)C[C@@H]1NC(=O)[C@H](CCN)NC(=O)[C@@H](CC(C)C)NC(=O)[C@H](C)N(C)C(=O)[C@H](C(C)C)NC(=O)[C@H](Cc2ccc(-c3ccccc3)cc2)NC(=O)[C@H](C(C)C)NC(=O)[C@H](Cc2cccc(C(F)(F)F)c2)NC(=O)[C@H](CC(=O)O)NC(=O)[C@H](Cc2ccc(O)cc2)NC(=O)[C@H](CC(N)=O)NC(=O)CSC[C@@H](C(=O)N[C@@H](C)C(N)=O)NC(=O)[C@H]([C@@H](C)O)NC(=O)[C@H](C(C)C)NC1=O [Compound 1290] ({CH2CO}-NYD[Phe(3-CF3)]V[Bip]V[NMeA][dL][Dab]LVTCA-NH2; thioether N-14) | 0.01
CC(C)C[C@@H]1NC(=O)[C@H](CCN)NC(=O)[C@@H](CC(C)C)NC(=O)[C@H](C)N(C)C(=O)[C@H](CCCN)NC(=O)[C@H](Cc2ccc(-c3ccccc3)cc2)NC(=O)[C@H](C(C)C)NC(=O)[C@H](Cc2c[nH]c3ccccc23)NC(=O)[C@H](CC(=O)O)NC(=O)[C@H](Cc2ccc(O)cc2)NC(=O)[C@H](Cc2ccncc2)NC(=O)CSC[C@@H](C(=O)N[C@@H](C)C(N)=O)NC(=O)[C@H](C(C)O)NC(=O)[C@H](C(C)C)NC1=O (stereo partly drawn) [Compound 2081] ({CH2CO}-[4Pal]YDWV[Bip][Orn][NMeA][dL][Dab]LV[Thr(3ξ)]CA-NH2; thioether N-14) | 0.03
CC(C)C[C@@H]1NC(=O)[C@H](CC(N)=O)NC(=O)[C@@H](CC(C)C)NC(=O)[C@H](C)N(C)C(=O)[C@H](CCCNC(N)=O)NC(=O)[C@H](Cc2ccc(-c3ccccc3)cc2)NC(=O)[C@H](C(C)C)NC(=O)[C@H](Cc2c[nH]c3ccccc23)NC(=O)[C@H](CC(=O)O)NC(=O)[C@H](Cc2ccc(O)cc2)NC(=O)[C@H](Cc2ccccc2)NC(=O)CSC[C@@H](C(=O)N[C@@H](C)C(=O)N[C@@H](CCCN)C(=O)O)NC(=O)[C@H](CO)NC(=O)[C@H](C(C)C)NC1=O [Compound 2237] ({CH2CO}-FYDWV[Bip][Cit][NMeA][dL]NLVSCA[Orn]-OH; thioether N-14) | 0.01
CCC(C)[C@@H]1NC(=O)[C@H](Cc2ccc(-c3ccccc3)cc2)NC(=O)[C@H](CCC(=O)O)NC(=O)[C@H](Cc2c[nH]c3ccccc23)NC(=O)[C@H](CC(N)=O)NC(=O)[C@H](Cc2ccc(O)cc2)NC(=O)[C@H](Cc2ccncc2)NC(=O)CSC[C@@H](C(=O)N[C@@H](C)C(N)=O)NC(=O)[C@H](C(C)O)NC(=O)[C@H](CCN)NC(=O)[C@H](CC(C)C)NC(=O)[C@H](CC(N)=O)NC(=O)[C@@H](CC(C)C)NC(=O)[C@H](C)N(C)C1=O (stereo partly drawn) [Compound 2059] ({CH2CO}-[4Pal]YNWE[Bip][Ile(3ξ)][NMeA][dL]NL[Dab][Thr(3ξ)]CA-NH2; thioether N-14) | 0.74
Cc1cccc(C[C@@H]2NC(=O)[C@H](CC(=O)O)NC(=O)[C@H](Cc3ccc(C(=O)O)cc3)NC(=O)[C@H](Cc3ccc(OCC(=O)O)cc3)NC(=O)CSC[C@@H](C(=O)N[C@@H](CCC(=O)O)C(N)=O)NC(=O)[C@H](CO)NC(=O)[C@H](C(C)C)NC(=O)[C@H](CC(C)C)NC(=O)[C@H](CC(N)=O)NC(=O)[C@@H](CC(C)C)NC(=O)[C@H](C)N(C)C(=O)[C@H](C(C)C)NC(=O)[C@H](Cc3ccc(-c4ccccc4)cc3)NC(=O)[C@H](CC(C)C)NC2=O)c1 [Compound 1604] ({CH2CO}-Y(Carboxymethyl)[Phe(4-COOH)]D[Phe(3-Me)]L[Bip]V[NMeA][dL]NLVSCE-NH2; thioether N-14) | 0.01
CCCCC[C@@H]1NC(=O)[C@H](Cc2ccc(-c3ccccc3)cc2)NC(=O)[C@H](C(C)C)NC(=O)[C@H](Cc2c[nH]c3ccccc23)NC(=O)[C@H](CC(=O)O)NC(=O)[C@H](Cc2ccc(O)cc2)NC(=O)[C@H](CC(N)=O)NC(=O)CSC[C@@H](C(=O)N[C@@H](C)C(N)=O)NC(=O)[C@H](C(C)O)NC(=O)[C@H](C(C)C)NC(=O)[C@H](CC(C)C)NC(=O)[C@H](CCN)NC(=O)[C@@H](CC(C)C)NC(=O)[C@H](C)N(C)C1=O (stereo partly drawn) [Compound 2083] ({CH2CO}-NYDWV[Bip][Ahp(2)][NMeA][dL][Dab]LV[Thr(3ξ)]CA-NH2; thioether N-14) | 0.06
CCC(C)[C@@H]1NC(=O)[C@H](Cc2ccc(-c3ccccc3)cc2)NC(=O)[C@H](C(C)C)NC(=O)[C@H](Cc2c[nH]c3ccccc23)NC(=O)[C@H](CC(=O)O)NC(=O)[C@H](Cc2ccc(O)cc2)NC(=O)[C@H](Cc2ccc3ccncc3c2)NC(=O)CSCC(C(=O)NCC(=O)O)NC(=O)[C@H](C(C)O)NC(=O)[C@H](C(C)C)NC(=O)[C@H](CC2CCCCC2)NC(=O)[C@H](CCN)NC(=O)[C@@H](CC(C)C)NC(=O)[C@H](C)N(C)C1=O (stereo partly drawn) [Compound 2219] ({CH2CO}-[X28]YDWV[Bip][Ile(3ξ)][NMeA][dL][Dab][Cha]V[Thr(3ξ)][ξC]G-OH; thioether N-14) | 0.02
